Reference: patent publication US12673921B2, “Substituted fluorine-containing imidazole salt compound, preparation method therefor, pharmaceutical composition thereof and use thereof” (XIAMEN VIVOHEALTHS TECHNOLOGY CO., LTD., priority 2019, dated 2026)

Tested on: AMPK
Assay: AMPK activation in liver of treated high-fat-fed mice by western blot
Format: in vivo, mouse
Conditions: 90 days after s.c. administration
Text: […]

## Cc1n(CCCCCCCCCCCC(F)(F)C(F)(F)C(F)(F)C(F)(F)C(F)(F)F)cc[n+]1Cc1c(Cl)cccc1Cl.[Cl-] [IB-33]
  AMPK activation in the mice (p-AMPK Thr172, p-ACC Ser79 by western blot): effectively activate AMPK
